Data on 23 compounds can be found in ChEMBL document CHEMBL4476883, “Hydroxy formamide derivatives and their use” (2017).

Assay [1] has as its target T1, Bone morphogenetic protein 1 (Homo sapiens, UniProt P13497).
T1 sequence (P13497 whole entry): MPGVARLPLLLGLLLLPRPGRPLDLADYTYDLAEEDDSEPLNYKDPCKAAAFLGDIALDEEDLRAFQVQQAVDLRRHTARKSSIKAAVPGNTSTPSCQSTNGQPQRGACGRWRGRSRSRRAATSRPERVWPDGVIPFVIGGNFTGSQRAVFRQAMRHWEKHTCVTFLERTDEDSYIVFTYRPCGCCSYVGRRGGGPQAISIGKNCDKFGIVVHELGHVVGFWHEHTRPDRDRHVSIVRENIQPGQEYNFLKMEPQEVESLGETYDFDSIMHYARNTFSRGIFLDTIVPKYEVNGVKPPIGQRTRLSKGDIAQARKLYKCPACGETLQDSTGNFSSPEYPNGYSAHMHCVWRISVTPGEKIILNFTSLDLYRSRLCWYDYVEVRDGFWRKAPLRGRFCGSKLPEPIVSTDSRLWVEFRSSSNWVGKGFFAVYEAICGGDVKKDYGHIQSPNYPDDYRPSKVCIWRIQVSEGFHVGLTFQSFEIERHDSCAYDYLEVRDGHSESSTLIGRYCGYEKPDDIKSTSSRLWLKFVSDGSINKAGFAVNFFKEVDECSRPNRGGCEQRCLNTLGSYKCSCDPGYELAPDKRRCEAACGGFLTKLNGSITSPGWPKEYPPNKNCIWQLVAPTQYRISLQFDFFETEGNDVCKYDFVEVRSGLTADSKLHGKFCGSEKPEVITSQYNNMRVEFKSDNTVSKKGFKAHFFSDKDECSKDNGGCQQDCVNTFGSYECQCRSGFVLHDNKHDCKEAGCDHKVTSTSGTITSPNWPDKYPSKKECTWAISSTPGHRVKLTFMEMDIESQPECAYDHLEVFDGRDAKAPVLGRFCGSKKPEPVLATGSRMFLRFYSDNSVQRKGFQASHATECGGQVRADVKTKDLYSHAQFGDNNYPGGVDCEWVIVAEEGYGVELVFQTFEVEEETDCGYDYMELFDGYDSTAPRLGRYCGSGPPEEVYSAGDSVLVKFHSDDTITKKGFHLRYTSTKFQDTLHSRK
As to the kind of experiment: Inhibition of C-terminal FLAG-6x-His epitope tagged and N-terminal human RAGE signal sequence tagged human BMP1 (23 to 721 amino acids) expressed in CHO-E1A cells pre-incubated for 10 mins before promyostatin peptide substrate addition and measured after 60 mins using 0.5 nM BMP1 by FRET based assay. Format: cell-based.

Another assay concerns the target Tolloid-like protein 1 (Homo sapiens, UniProt O43897, I156V/N221S/V284A). The assay is described as follows: Inhibition of recombinant human TLL1 I156V/N221S/V284A mutant expressed in CHOE1A cells pre-incubated for 10 mins before promyostatin peptide substrate addition and measured after 60 mins by FRET based assay. Format: cell-based.
In another assay the target is T2, Tolloid-like protein 2 (Homo sapiens, UniProt Q9Y6L7).
T2 sequence (Q9Y6L7 whole entry): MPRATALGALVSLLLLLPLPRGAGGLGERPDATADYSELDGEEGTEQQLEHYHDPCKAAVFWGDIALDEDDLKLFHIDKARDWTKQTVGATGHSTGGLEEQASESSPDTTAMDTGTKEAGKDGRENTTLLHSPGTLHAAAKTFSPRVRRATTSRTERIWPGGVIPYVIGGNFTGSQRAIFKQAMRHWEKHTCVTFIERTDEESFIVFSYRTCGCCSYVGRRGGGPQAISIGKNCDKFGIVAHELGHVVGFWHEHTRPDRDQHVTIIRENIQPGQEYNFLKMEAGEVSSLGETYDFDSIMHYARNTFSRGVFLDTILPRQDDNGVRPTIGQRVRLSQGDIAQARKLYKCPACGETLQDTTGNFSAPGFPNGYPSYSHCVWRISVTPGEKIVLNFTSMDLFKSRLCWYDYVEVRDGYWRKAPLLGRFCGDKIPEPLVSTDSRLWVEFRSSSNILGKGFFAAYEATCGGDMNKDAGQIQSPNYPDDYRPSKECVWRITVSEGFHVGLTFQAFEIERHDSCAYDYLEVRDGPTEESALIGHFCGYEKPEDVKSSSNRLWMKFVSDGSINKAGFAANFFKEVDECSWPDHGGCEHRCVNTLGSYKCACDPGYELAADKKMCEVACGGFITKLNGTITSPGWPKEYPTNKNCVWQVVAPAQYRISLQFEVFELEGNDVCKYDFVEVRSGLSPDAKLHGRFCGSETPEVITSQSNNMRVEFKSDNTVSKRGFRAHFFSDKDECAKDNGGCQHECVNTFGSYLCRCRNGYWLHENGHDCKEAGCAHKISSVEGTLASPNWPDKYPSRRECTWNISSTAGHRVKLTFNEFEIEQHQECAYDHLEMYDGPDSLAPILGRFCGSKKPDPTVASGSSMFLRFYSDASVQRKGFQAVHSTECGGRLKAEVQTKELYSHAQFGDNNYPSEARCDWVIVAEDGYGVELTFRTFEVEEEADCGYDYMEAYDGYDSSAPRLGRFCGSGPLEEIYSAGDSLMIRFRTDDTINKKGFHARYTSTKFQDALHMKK
The assay is described as follows: Inhibition of C-terminal Avi-6x-His epitope tagged and N-terminal human RAGE signal sequence tagged recombinant human TLL2 (26 to 1015 amino acids) expressed in CHOE1A cells incubated for 60 mins with promyostatin peptide substrate by FRET based assay. Format: cell-based.

The target of assay [2] is T1, Bone morphogenetic protein 1. The assay is described as follows: Inhibition of C-terminal FLAG-6x-His epitope tagged and N-terminal human RAGE signal sequence tagged human BMP1 (23 to 721 amino acids) expressed in CHO-E1A cells pre-incubated for 10 mins before promyostatin peptide substrate addition and measured after 30 mins using 50 nM BMP1 by FRET based assay. Format: cell-based.

A short description of assay [3]: Reduction in PICP levels in human cardiac fibroblasts incubated for 24 to 48 hrs by ELISA. Format: functional.

Chain of Tolloid-like protein 1 (O43897 148-1013 I156V/N221S/V284A limits assumed): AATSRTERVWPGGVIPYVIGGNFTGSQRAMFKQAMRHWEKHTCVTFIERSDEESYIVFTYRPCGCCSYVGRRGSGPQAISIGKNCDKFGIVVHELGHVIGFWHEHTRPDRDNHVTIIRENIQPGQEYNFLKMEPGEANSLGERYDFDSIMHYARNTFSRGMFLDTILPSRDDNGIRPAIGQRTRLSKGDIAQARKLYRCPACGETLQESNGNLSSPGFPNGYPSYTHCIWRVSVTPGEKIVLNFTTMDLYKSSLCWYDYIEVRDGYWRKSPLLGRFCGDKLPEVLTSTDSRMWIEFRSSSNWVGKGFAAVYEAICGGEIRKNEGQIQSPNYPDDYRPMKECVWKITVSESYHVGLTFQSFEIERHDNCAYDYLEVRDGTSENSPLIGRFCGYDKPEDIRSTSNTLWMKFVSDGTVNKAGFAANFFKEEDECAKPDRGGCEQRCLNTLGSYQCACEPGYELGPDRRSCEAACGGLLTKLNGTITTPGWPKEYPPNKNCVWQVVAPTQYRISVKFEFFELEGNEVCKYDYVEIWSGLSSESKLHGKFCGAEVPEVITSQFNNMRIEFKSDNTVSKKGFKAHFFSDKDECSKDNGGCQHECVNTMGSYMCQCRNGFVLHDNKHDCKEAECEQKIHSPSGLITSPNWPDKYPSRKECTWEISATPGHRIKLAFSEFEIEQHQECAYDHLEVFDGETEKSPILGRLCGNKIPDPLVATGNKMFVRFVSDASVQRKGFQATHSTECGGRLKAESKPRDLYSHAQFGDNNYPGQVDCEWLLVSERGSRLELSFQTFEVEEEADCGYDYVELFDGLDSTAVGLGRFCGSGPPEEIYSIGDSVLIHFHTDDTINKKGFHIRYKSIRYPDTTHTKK

With `CCCCC[C@H](CN(O)C=O)C(=O)NCNC(=O)c1cccc(-c2cccc(C(=O)O)c2)c1`, the 50% inhibitory concentration (IC50) is below 126 nM in assay [1]; below 398 nM at Tolloid-like protein 1; below 631 nM on Tolloid-like protein 2; below 251 nM in assay [2]; below 20000 nM in assay [3].
The like results for `CCCCC[C@H](CN(O)C=O)C(=O)NCNC(=O)c1cccc(-c2cccc(OC)c2F)c1` were, in that order, below 126 nM, below 398 nM, below 631 nM, below 251 nM and below 20000 nM.
As for `CCCCC[C@H](CN(O)C=O)C(=O)NCNC(=O)c1cccc(-c2ccnn2CC)c1`, the 50% inhibitory concentration (IC50) in assay [1] is below 126 nM; at Tolloid-like protein 1, below 398 nM; at Tolloid-like protein 2, below 631 nM; in assay [2] it was below 251 nM; in assay [3] it was below 20000 nM.
In the case of `CCCCC[C@@H](C(=O)NCNC(=O)c1cc(C(=O)O)cc(-c2cc(OCC)cc(C(=O)O)c2)c1)[C@@H](CC)N(O)C=O`, the values for the half-inhibitory concentration (IC50) in assay [1], in assay [2] and in assay [3] were below 126 nM, below 251 nM and below 20000 nM, respectively.
`CCCCC[C@H](CN(O)C=O)C(=O)NCNC(=O)c1cccc(-c2cc(OC)nnc2OC)c1`: the half-maximal inhibitory concentration (IC50) in assay [1] is below 126 nM; at Tolloid-like protein 1, below 398 nM; at Tolloid-like protein 2, below 631 nM; in assay [2], below 251 nM; in assay [3], below 20000 nM.
In the same order, the values of `CCCCC[C@H](CN(O)C=O)C(=O)NCNC(=O)c1cccc(-c2ccc(F)cc2)c1` are below 126 nM, below 398 nM, below 631 nM, below 251 nM and below 20000 nM.
In the same order, the values of `CCCCC[C@H](CN(O)C=O)C(=O)NCNC(=O)c1cccc(-c2cccc(OC(C)C)c2)c1` are below 126 nM, below 398 nM, below 631 nM, below 251 nM and below 20000 nM.
The like results for `CCCCC[C@H](CN(O)C=O)C(=O)NCNC(=O)c1cccc(-c2cccc(O)c2)c1` were, in that order, below 126 nM, below 398 nM, below 631 nM, below 251 nM and below 20000 nM.
Take `CCCCC[C@H](CN(O)C=O)C(=O)NCNC(=O)c1cccc(-c2cccc(F)c2)c1`: the IC50 in assay [1] was below 126 nM; at Tolloid-like protein 1 it was below 398 nM; at Tolloid-like protein 2 it was below 631 nM; in assay [2] it was below 251 nM; in assay [3] it was below 20000 nM.
Turning to `CCCCC[C@H](CN(O)C=O)C(=O)NCNC(=O)c1cccc(-c2cccc(C(N)=O)c2)c1`, the IC50 was below 126 nM in assay [1]; below 398 nM at Tolloid-like protein 1; below 631 nM at Tolloid-like protein 2; below 251 nM in assay [2]; below 20000 nM in assay [3].
In the same order, the values of `CCCCC[C@H](CN(O)C=O)C(=O)NCNC(=O)c1cccc(-c2cccc(NS(C)(=O)=O)c2)c1` are below 126 nM, below 398 nM, below 631 nM, below 251 nM and below 20000 nM.
Take `COc1cncc(-c2cccc(C(=O)NCNC(=O)[C@H](CC3CCCC3)CN(O)C=O)c2)c1`: the half-maximal inhibitory concentration (IC50) is below 126 nM in assay [1]; below 398 nM on Tolloid-like protein 1; below 631 nM at Tolloid-like protein 2; below 251 nM in assay [2]; below 20000 nM in assay [3].
Regarding `CCCCC[C@H](CN(O)C=O)C(=O)NCNC(=O)c1cccc(-c2ccc(OC)cc2)c1`, the half-maximal inhibitory concentration (IC50) was below 126 nM in assay [1]; below 398 nM on Tolloid-like protein 1; below 631 nM on Tolloid-like protein 2; below 251 nM in assay [2]; below 20000 nM in assay [3].
The like results for `CCCCC[C@H](CN(O)C=O)C(=O)NCNC(=O)c1cccc(-c2cccc(S(N)(=O)=O)c2)c1` were, in that order, below 126 nM, below 398 nM, below 631 nM, below 251 nM and below 20000 nM.
Turning to `CCCCC[C@H](CN(O)C=O)C(=O)NCNC(=O)c1cccc(-c2cncc(OC)c2)c1`, the 50% inhibitory concentration (IC50) in assay [1] was below 126 nM; at Tolloid-like protein 1 it was below 398 nM; on Tolloid-like protein 2, below 631 nM; in assay [2], below 251 nM; in assay [3], below 20000 nM.
`CCCCC[C@H](CN(O)C=O)C(=O)NCNC(=O)c1cccc(-c2ccc(N(C)C)cc2)c1`: the IC50 in assay [1] was below 126 nM; on Tolloid-like protein 1, below 398 nM; on Tolloid-like protein 2, below 631 nM; in assay [2], below 251 nM; in assay [3] it was below 20000 nM.
The like results for `CCCCC[C@H](CN(O)C=O)C(=O)NCNC(=O)c1cccc(-c2cccc(N(C)C)c2)c1` were, in that order, below 126 nM, below 398 nM, below 631 nM, below 251 nM and below 20000 nM.
As for `CCCCC[C@H](CN(O)C=O)C(=O)NCNC(=O)c1cccc(-c2ccc(F)c(OC)c2)c1`, the IC50 is below 126 nM in assay [1]; below 398 nM on Tolloid-like protein 1; below 631 nM at Tolloid-like protein 2; below 251 nM in assay [2]; below 20000 nM in assay [3].
On to `COc1cc(-c2cccc(C(=O)NCNC(=O)[C@H](CCc3ccccc3)CN(O)C=O)c2)c(OC)nn1`, for which the IC50 in assay [1] was below 126 nM; on Tolloid-like protein 1, below 398 nM; at Tolloid-like protein 2, below 631 nM; in assay [2], below 251 nM; in assay [3], below 20000 nM.
In the case of `CCCCC[C@H](CN(O)C=O)C(=O)NCNC(=O)c1cccc(-c2cccc(OCC(F)(F)F)c2)c1`, the half-maximal inhibitory concentration (IC50) is below 126 nM in assay [1]; below 398 nM at Tolloid-like protein 1; below 631 nM on Tolloid-like protein 2; below 251 nM in assay [2]; below 20000 nM in assay [3].
In the same order, the values of `COc1cc(OC)cc(-c2cccc(C(=O)NCNC(=O)[C@H](CC3CCCC3)CN(O)C=O)c2)c1` are below 126 nM, below 398 nM, below 631 nM, below 251 nM and below 20000 nM.
For the compound `CCCCC[C@H](CN(O)C=O)C(=O)NCNC(=O)c1cccc(-c2cccc(S(C)(=O)=O)c2)c1`, the IC50 was below 126 nM in assay [1]; below 398 nM on Tolloid-like protein 1; below 631 nM on Tolloid-like protein 2; below 251 nM in assay [2]; below 20000 nM in assay [3].
Take `CCCCC[C@H](CN(O)C=O)C(=O)NCNC(=O)c1cccc(-c2ccccc2F)c1`: the 50% inhibitory concentration (IC50) in assay [1] is below 126 nM; on Tolloid-like protein 1 it was below 398 nM; at Tolloid-like protein 2, below 631 nM; in assay [2], below 251 nM; in assay [3] it was below 20000 nM.

In general, IC50 refers to the concentration that gives 50% inhibition.
